Data from ChEMBL document CHEMBL5390204, “Persephacin Is a Broad-Spectrum Antifungal Aureobasidin Metabolite That Overcomes Intrinsic Resistance in Aspergillus fumigatus” (J Nat Prod, 2023).
In brackets after ≈: the same amount, converted by molar mass. Activity calls are given as the source filed them. No cut-off for these calls is given here. Numbered stars: 1 amine (or outer) side, 2 acyl side, 3 side chain; on linkers, the order of the positions; unused ones are H or OH. Square brackets hold non-standard residues; d marks the D form. Peptide text beside a SMILES is read from it. X1 = CC[C@@H](C)[C@@H](O[*:1])C(=O)[*:2]; NMeVal(β-OH) = CN[C@H](C(=O)O)C(C)(C)O; NMeF = CN[C@@H](Cc1ccccc1)C(=O)O; aIle = CC[C@@H](C)[C@H](N)C(=O)O; NMeV = CN[C@H](C(=O)O)C(C)C

Key:
[1] = system: Candida parapsilosis; assay: Antifungal activity against Candida parapsilosis ATCC 22019 (Y-12969) assessed as reduction in fungal growth incubated for 48 hrs by microplate reader analysis; assay type: functional; conditions: Lodderomyces parapsilosis
[2] = system: Candida albicans; assay: Antifungal activity against Candida albicans ATCC 10231 assessed as reduction in fungal growth incubated for 48 hrs by microplate reader analysis; assay type: functional
[3] = system: Candida albicans; assay: Antifungal activity against Candida albicans SC5314 assessed as reduction in fungal growth incubated for 48 hrs by microplate reader analysis; assay type: functional
[4] = system: Pichia kudriavzevii; assay: Antifungal activity against Candida krusei ATCC 6258 (Y-7179) assessed as reduction in fungal growth incubated for 48 hrs by microplate reader analysis; assay type: functional
[5] = system: Candida tropicalis; assay: Antifungal activity against Candida tropicalis ATCC750 (Y-12699) assessed as reduction in fungal growth incubated for 48 hrs by microplate reader analysis; assay type: functional
[6] = system: Cryptococcus neoformans; assay: Antifungal activity against Cryptococcus neoformans H99 assessed as reduction in fungal growth incubated for 48 hrs by microplate reader analysis; assay type: functional
[7] = system: Aspergillus fumigatus; assay: Antifungal activity against Aspergillus fumigatus MYA 3627 assessed as reduction in fungal growth incubated for 48 hrs by microplate reader analysis; assay type: functional
[8] = system: Aspergillus fumigatus; assay: Antifungal activity against Aspergillus fumigatus NRRL6113 assessed as reduction in fungal growth incubated for 48 hrs by microplate reader analysis; assay type: functional
[9] = system: Aspergillus fumigatus; assay: Antifungal activity against Aspergillus fumigatus NRRL5109 assessed as reduction in fungal growth incubated for 48 hrs by microplate reader analysis; assay type: functional
[10] = system: Aspergillus flavus; assay: Antifungal activity against Aspergillus flavus NRRL485 assessed as reduction in fungal growth incubated for 48 hrs by microplate reader analysis; assay type: functional
[11] = system: Aspergillus niger; assay: Antifungal activity against Aspergillus niger FGSC A732 assessed as reduction in fungal growth incubated for 48 hrs by microplate reader analysis; assay type: functional
[12] = system: Aspergillus terreus; assay: Antifungal activity against Aspergillus terreus 191A6 assessed as reduction in fungal growth incubated for 48 hrs by microplate reader analysis; assay type: functional
[13] = system: Curvularia lunata; assay: Antifungal activity against Curvularia lunata NRRL6409 assessed as reduction in fungal growth incubated for 48 hrs by microplate reader analysis; assay type: functional
[14] = system: Rhizopus arrhizus; assay: Antifungal activity against Rhizopus oryzae FGSC 9543 assessed as reduction in fungal growth incubated for 48 hrs by microplate reader analysis; assay type: functional
[15] = system: Mucor circinelloides; assay: Antifungal activity against Mucor circinelloides 235C7 assessed as reduction in fungal growth incubated for 48 hrs by microplate reader analysis; assay type: functional
[16] = system: Fusarium solani; assay: Antifungal activity against Fusarium solani 243G2 assessed as reduction in fungal growth incubated for 48 hrs by microplate reader analysis; assay type: functional
[17] = system: Paecilomyces lilacinus; assay: Antifungal activity against Paecilomyces lilacinus 165E10 assessed as reduction in fungal growth incubated for 48 hrs by microplate reader analysis; assay type: functional; conditions: Purpureocillium lilacinum
[18] = system: Hamigera insecticola; assay: Antifungal activity against Hamigera insecticola NRRL35442 assessed as reduction in fungal growth incubated for 48 hrs by microplate reader analysis; assay type: functional
[19] = system: Candida albicans; assay: Antifungal activity against Candida albicans SC5314 assessed as reduction in fungal viability incubated for 48 hrs by microplate reader analysis; assay type: functional
[20] = system: Candida albicans; assay: Antifungal activity against Candida albicans ATCC 10231 assessed as reduction in fungal viability incubated for 48 hrs by microplate reader analysis; assay type: functional
[21] = system: Candida parapsilosis; assay: Antifungal activity against Candida parapsilosis ATCC 22019 (Y-12969) assessed as reduction in fungal viability incubated for 48 hrs by microplate reader analysis; assay type: functional
[22] = system: Candida tropicalis; assay: Antifungal activity against Candida tropicalis ATCC750 (Y-12699) assessed as reduction in fungal viability incubated for 48 hrs by microplate reader analysis; assay type: functional
[23] = system: Pichia kudriavzevii; assay: Antifungal activity against Candida krusei ATCC 6258 (Y-7179) assessed as reduction in fungal viability incubated for 48 hrs by microplate reader analysis; assay type: functional
[24] = system: Cryptococcus neoformans; assay: Antifungal activity against Cryptococcus neoformans H99 assessed as reduction in fungal viability incubated for 48 hrs by microplate reader analysis; assay type: functional
[25] = system: Aspergillus fumigatus; assay: Antifungal activity against Aspergillus fumigatus MYA 3627 assessed as reduction in fungal viability incubated for 48 hrs by microplate reader analysis; assay type: functional
[26] = system: Aspergillus fumigatus; assay: Antifungal activity against Aspergillus fumigatus NRRL6113 assessed as reduction in fungal viability incubated for 48 hrs by microplate reader analysis; assay type: functional
[27] = system: Aspergillus fumigatus; assay: Antifungal activity against Aspergillus fumigatus NRRL5109 assessed as reduction in fungal viability incubated for 48 hrs by microplate reader analysis; assay type: functional
[28] = system: Aspergillus flavus; assay: Antifungal activity against Aspergillus flavus NRRL485 assessed as reduction in fungal viability incubated for 48 hrs by microplate reader analysis; assay type: functional
[29] = system: Aspergillus niger; assay: Antifungal activity against Aspergillus niger FGSC A732 assessed as reduction in fungal viability incubated for 48 hrs by microplate reader analysis; assay type: functional
[30] = system: Aspergillus terreus; assay: Antifungal activity against Aspergillus terreus 191A6 assessed as reduction in fungal viability incubated for 48 hrs by microplate reader analysis; assay type: functional
[31] = system: Curvularia lunata; assay: Antifungal activity against Curvularia lunata NRRL6409 assessed as reduction in fungal viability incubated for 48 hrs by microplate reader analysis; assay type: functional
[32] = system: Rhizopus arrhizus; assay: Antifungal activity against Rhizopus oryzae FGSC 9543 assessed as reduction in fungal viability incubated for 48 hrs by microplate reader analysis; assay type: functional
[33] = system: Mucor circinelloides; assay: Antifungal activity against Mucor circinelloides 235C7 assessed as reduction in fungal viability incubated for 48 hrs by microplate reader analysis; assay type: functional
[34] = system: Fusarium solani; assay: Antifungal activity against Fusarium solani 243G2 assessed as reduction in fungal viability incubated for 48 hrs by microplate reader analysis; assay type: functional
[35] = system: Paecilomyces lilacinus; assay: Antifungal activity against Paecilomyces lilacinus 165E10 assessed as reduction in fungal viability incubated for 48 hrs by microplate reader analysis; assay type: functional, Purpureocillium lilacinum
[36] = system: Hamigera insecticola; assay: Antifungal activity against Hamigera insecticola NRRL35442 assessed as reduction in fungal viability incubated for 48 hrs by microplate reader analysis; assay type: functional
[37] = system: Candida albicans; assay: Antifungal activity against fluconazole-resistant Candida albicans SC5314 infected in pig cornea assessed as suppression of fungal growth at 2 % administered post fungal infection measured after 4 days by microscopic analysis; assay type: functional, organism-based; conditions: time 4.0 day
[38] = system: Aspergillus fumigatus; assay: Antifungal activity against Aspergillus fumigatus NRRL5109 infected in pig cornea assessed as suppression of fungal growth at 2 % administered post fungal infection measured after 4 days by microscopic analysis; assay type: functional, organism-based; conditions: time 4.0 day

CC[C@@H](C)[C@@H]1NC(=O)[C@@H]2CCCN2C(=O)[C@H](Cc2ccccc2)N(C)C(=O)[C@H](Cc2ccccc2)NC(=O)[C@H](C(C)C)N(C)C(=O)[C@@H]([C@H](C)CC)OC(=O)[C@H](C(C)(C)O)N(C)C(=O)[C@H](CC(C)C)NC(=O)[C@H](C(C)C)N(C)C1=O [AUREOBASIDIN A] (cyclo(F[NMeF]P[aIle][NMeV]L[NMeVal(β-OH)][X1][NMeV]))
MFC [1]: 2.5 µM (≈ 2.75 µg/mL) | MIC80 [1]: 1.3 µM (≈ 1.43 µg/mL) | MFC [2]: 2.5 µM (≈ 2.75 µg/mL) | MIC80 [2]: 0.6 µM (≈ 0.661 µg/mL) | MFC [3]: 0.6 µM (≈ 0.661 µg/mL) | MIC80 [3]: 0.3 µM (≈ 0.33 µg/mL) | MFC [4]: 2.5 µM (≈ 2.75 µg/mL) | MIC80 [4]: 1.3 µM (≈ 1.43 µg/mL) | MFC [5]: 0.6 µM (≈ 0.661 µg/mL) | MIC80 [5]: 0.6 µM (≈ 0.661 µg/mL) | MFC [6]: 2.5 µM (≈ 2.75 µg/mL) | MIC80 [6]: 2.5 µM (≈ 2.75 µg/mL) | MFC [7]: > 10 µM | MIC80 [7]: > 10 µM | MFC [8]: > 10 µM | MIC80 [8]: > 10 µM | MFC [9]: > 10 µM | MIC80 [9]: > 10 µM | MFC [10]: > 10 µM | MIC80 [10]: > 10 µM | MFC [11]: > 10 µM | MIC80 [11]: 5 µM (≈ 5.51 µg/mL) | MFC [12]: > 10 µM | MIC80 [12]: 2.5 µM (≈ 2.75 µg/mL) | MFC [13]: 1.3 µM (≈ 1.43 µg/mL) | MIC80 [13]: 0.6 µM (≈ 0.661 µg/mL) | MFC [14]: > 10 µM | MIC80 [14]: > 10 µM | MFC [15]: > 10 µM | MIC80 [15]: > 10 µM | MFC [16]: > 10 µM | MIC80 [16]: 5 µM (≈ 5.51 µg/mL) | MFC [17]: > 10 µM | MIC80 [17]: 5 µM (≈ 5.51 µg/mL) | MFC [18]: > 10 µM | MIC80 [18]: 0.6 µM (≈ 0.661 µg/mL) | MFC<=99.9 [19]: 0.6 µM (≈ 0.661 µg/mL) | MFC<=99.9 [20]: 2.5 µM (≈ 2.75 µg/mL) | MFC<=99.9 [21]: 2.5 µM (≈ 2.75 µg/mL) | MFC<=99.9 [22]: 0.6 µM (≈ 0.661 µg/mL) | MFC<=99.9 [23]: 2.5 µM (≈ 2.75 µg/mL) | MFC<=99.9 [24]: 2.5 µM (≈ 2.75 µg/mL) | MFC<=99.9 [25]: >10 µM | MFC<=99.9 [26]: >10 µM | MFC<=99.9 [27]: >10 µM | MFC<=99.9 [28]: >10 µM | MFC<=99.9 [29]: >10 µM | MFC<=99.9 [30]: >10 µM | MFC<=99.9 [31]: 1.3 µM (≈ 1.43 µg/mL) | MFC<=99.9 [32]: >10 µM | MFC<=99.9 [33]: >10 µM | MFC<=99.9 [34]: >10 µM | MFC<=99.9 [35]: >10 µM | MFC<=99.9 [36]: >10 µM

OC(Cn1cncn1)(Cn1cncn1)c1ccc(F)cc1F
Activity [37]: inactive | Activity [38]: inactive
